Values quoted from earlier work as cited in patent publication US9439853B2, “Form of administration of enkephalinase inhibitor” (BIOPROJET, priority 2010, dated 2016).

Settings: for ondansetron the water phase of the suspension

Structure (SMILES)	solubility in water
CC(=O)SCC(Cc1ccccc1)C(=O)NCC(=O)OCc1ccccc1 (centres unmarked) [Racecadotril]	insoluble in water
Cc1nccn1CC1CCc2c(c3ccccc3n2C)C1=O (centres unmarked) [ondansetron]	soluble in the water phase of the suspension
